Converted amounts (≈) assume the structure as drawn.
Experiments:
[1] = Persistence of curcumin fluorescence at the treatment site after tumor excision; assay type: in vivo, mice; conditions: post-surgery
HeLa = conditions: read-out: CI50 (the source's name); cited from earlier work
[2] = tested on: U937 (monoblastic leukemia); conditions: U937, 48-hour exposure; read-out: CI50 (the source's name); cited from earlier work
[3] = tested on: Metastatic B16F10 murine melanoma cells; assay: Viability assay (MTS), B16F10 cells; assay type: cell-based; conditions: Mus musculus, B16-F10, B16F10, 24 h treatment, read-out: IC50, decrease of proliferation/viability
Experimental: Metastatic B16F10 murine melanoma cells were cultured in RPMI 1640 (Roswell Park Memorial Institute) supplemented with 10% FBS, 2 mM glutamine, and antibiotics (100 U/mL penicillin and 100 μg/mL streptomycin) at 37° C. in 5% CO2.
The cultured metastatic B16F10 murine melanoma cells and cultured human embryonic kidney cells (HEK293T) were seeded in 96-well plates at a density of 1×10^4 cells per well and incubated for 24 h in culture medium. […] 2% Sodium dodecyl sulfate (SDS) and a standard cell medium were used as positive and negative cell controls, respectively. Cell proliferation was evaluated by the MTS® assay, according to the manufacturer's (Promega, Madison, WI) instructions. Absorbance was evaluated at 490 nm removing any background absorbance (620 nm) in plate reader (Tecan Infinite 200 pro NanoQuant).

[4] = tested on: HL-60 (promyelocytic leukemia); conditions: HL-60, 48-hour exposure; read-out: CI50 (the source's name); cited from earlier work
K562 (erythroleukemia) = conditions: K562, 48-hour exposure; read-out: CI50 (the source's name); cited from earlier work
[5] = tested on: Molt4 (human acute lymphoblastic leukemia); conditions: Molt4, 48-hour exposure; read-out: CI50 (the source's name); cited from earlier work
B16F10 cells = assay: Matrigel invasion assay; assay type: cell-based, murine; conditions: normalized to untreated control
Experimental: B16F10 cells (5×10^4) were seeded, allowed to grow for 24 h, and treated with CUR-NEM, CUR and controls. Then, serum-starved cells (2×10^5) were seeded (24 h) over 8 μm-porous inserts covered with Matrigel (Matrigel Invasion Chamber 8.0 lm; BD Biosciences Bedford, MA, USA). […] The membranes were mounted in Mowiol, and observed under a light microscope. At least 10 fields were evaluated (at 40× magnification) to determine the number of cells per field. The values obtained were normalized to those obtained for cells without treatment (control). Averages of values from three independent experiments are shown (mean±SEM). Statistically significant differences compared with the corresponding control group are indicated (**P<0.001; ****<0.0001). Metastasis is a complex process that is known to require migration and invasion of malignant cells.

[6] = tested on: uterine cervical cancer cell line HeLa; assay: Viability assay (CellTiter 96 MTS), HeLa cells; assay type: cell-based, human
Experimental: To further determine the effect of the formulation on cell viability, the calorimetric method of tetrazolium salt reduction (CellTiter 96®) was used to establish a linear relationship between the number of metabolically active cells and the absorption intensity. […] 2500 HeLa cells were seeded per well, in a 96-well microplate, and the cells were incubated with 100 μL of Dulbecco's Modified Eagle Medium (DMEM) culture medium enriched with 10% fetal bovine serum (FBS), at 37° C. and 5% CO2. The day after seeding, the 100 μL of medium was removed, and it was replaced by 80 μL of clean culture medium. Then 20 μL of a treatment was applied, and the cells were incubated under the same temperature and CO2 conditions. 24 hours after the treatment was applied, the treatment was removed, the cells were subsequently washed three (3) times with phosphate-buffered saline (PBS), and 80 μL of medium without indicator was added to the cells and 20 μL of MTS. The cells were incubated for 1 hour, and the absorbance was measured at a wavelength of 490 nm in a microplate reader. […] Each assay was performed in triplicate. In addition, within each assay the same treatment was applied to a minimum of 5 wells.

B16F10 (murine melanoma) = conditions: B16F10, 48-hour exposure; read-out: CI50 (the source's name); cited from earlier work

## COc1cc(C=CC(=O)CC(=O)C=Cc2ccc(O)c(OC)c2)ccc1O [curcumin, 1,7-bis(4-hydroxy-3methoxyphenyl)-1,6-heptadien-3,5-dione]
[1]
  Curcumin fluorescence over basal levels, four (4) days after treatment: not detectable
HeLa
  IC50: 13.3 µM
[2]
  IC50: ~30.1 µM
[3]
  IC50: 34.8 ± 7.5 µg/mL (≈ 94.5 µM)
[4]
  IC50: ~15.7 µM
K562 (erythroleukemia)
  IC50: ~38.7 µM
[5]
  IC50: ~14.4 µM
B16F10 cells
  Reduction in invasiveness: 10 fold
[6]; Homo sapiens, 24-hour exposure, MTS, read-out: CI50 (the source's name)
  IC50: 61.8 ± 18.1 µM
[6]; after 24-hour exposure
  Concentration of maximum effectiveness (cytotoxicity): 50 µM
B16F10 (murine melanoma)
  IC50: ~3.5 µM

Source: US11813355B2, “Curcumin-loaded nanoemulsions, method of manufacture, and method of preventive treatment using the same” (UNIVERSIDAD DE CHILE, priority 2016, dated 2023)
